What was measured:
[1] = system: A549 cells expressing eGFP spike protein fusing with hACE2-overexpressing A549 cells; format: cell-based, human; settings: 25 μg/ml, 4 h
[2] = target: RBD of SARS-CoV-2 spike protein binding to hACE2 receptor (Severe acute respiratory syndrome coronavirus 2, UniProt P0DTC2)
recombinant hTMPRSS2 = target: T1, recombinant hTMPRSS2 (Homo sapiens, UniProt O15393); test: Recombinant TMPRSS2 activity assay (cell-free); format: biochemical; settings: 10-25 μg/ml, 3 h treatment
T1 construct: purchased Creative BioMart
T1 sequence (O15393 whole entry): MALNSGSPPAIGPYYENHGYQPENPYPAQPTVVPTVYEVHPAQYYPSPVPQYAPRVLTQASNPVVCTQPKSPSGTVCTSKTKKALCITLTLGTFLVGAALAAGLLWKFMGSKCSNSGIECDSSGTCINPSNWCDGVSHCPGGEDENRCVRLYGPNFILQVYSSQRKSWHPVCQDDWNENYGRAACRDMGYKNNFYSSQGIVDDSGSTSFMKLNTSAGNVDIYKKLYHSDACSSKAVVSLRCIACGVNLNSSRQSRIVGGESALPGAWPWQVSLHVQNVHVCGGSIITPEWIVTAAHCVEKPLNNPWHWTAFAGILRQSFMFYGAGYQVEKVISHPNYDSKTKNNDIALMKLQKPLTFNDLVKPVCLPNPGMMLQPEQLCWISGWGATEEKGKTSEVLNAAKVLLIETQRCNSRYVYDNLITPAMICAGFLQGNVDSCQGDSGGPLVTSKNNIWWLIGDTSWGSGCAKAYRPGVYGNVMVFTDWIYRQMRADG
Procedure: To this reaction 10 μM of TMPRSS2 enzyme in assay buffer (50 mM Tris pH=8, 150 mM NaCl) was added. Following 1 h incubation at RT, detection of fluorescent signal was performed using a spectrofluorometer at Ex/Em=360/440 nm wavelength (Tecan Group Ltd, Switzerland). The positive control was 100 μM camostat mesylate. […] Results are expressed as a percentage of polyphenol-free control (mean+/−SD, n=6).
Fluorescence was assessed using a spectrofluorometer at extension/emission=360/440 nm (Tecan Group Ltd., Switzerland). The positive control was 100 μM camostat mesylate.

hACE2 [3] = target: T2, hACE2 (Homo sapiens, UniProt Q9BYF1); test: ACE2 binding assay (ACE2 Inhibitor Screening Assay Kit); parameters: purchased BPS Bioscience; settings: polyphenols 5.0-25 μg/ml; PB 5.0 and 10 μg/ml
T2 sequence (Q9BYF1 18-805): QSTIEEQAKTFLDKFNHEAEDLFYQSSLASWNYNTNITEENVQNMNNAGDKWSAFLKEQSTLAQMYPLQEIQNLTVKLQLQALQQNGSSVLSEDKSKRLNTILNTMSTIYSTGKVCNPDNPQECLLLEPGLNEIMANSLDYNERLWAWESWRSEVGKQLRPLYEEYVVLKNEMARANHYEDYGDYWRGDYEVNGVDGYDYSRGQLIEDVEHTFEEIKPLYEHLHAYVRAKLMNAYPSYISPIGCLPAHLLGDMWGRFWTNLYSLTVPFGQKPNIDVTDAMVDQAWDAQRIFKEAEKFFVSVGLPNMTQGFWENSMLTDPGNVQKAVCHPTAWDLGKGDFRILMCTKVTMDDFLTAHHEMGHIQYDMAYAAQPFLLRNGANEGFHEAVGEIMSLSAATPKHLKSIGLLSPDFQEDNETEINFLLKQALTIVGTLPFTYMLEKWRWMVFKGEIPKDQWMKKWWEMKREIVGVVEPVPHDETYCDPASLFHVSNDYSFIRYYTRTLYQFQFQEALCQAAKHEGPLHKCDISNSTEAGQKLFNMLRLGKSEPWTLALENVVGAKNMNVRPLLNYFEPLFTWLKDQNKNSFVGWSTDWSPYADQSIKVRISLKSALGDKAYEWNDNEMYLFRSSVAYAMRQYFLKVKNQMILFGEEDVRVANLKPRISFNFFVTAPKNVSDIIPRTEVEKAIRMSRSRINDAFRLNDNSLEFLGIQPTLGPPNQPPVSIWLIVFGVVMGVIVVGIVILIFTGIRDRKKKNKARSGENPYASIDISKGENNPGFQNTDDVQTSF

[4] = target: T3, cathepsin L in A549 cells (Homo sapiens, UniProt P07711); test: Cellular cathepsin L activity (lysates of treated A549 cells); format: cell-based; settings: 25 μg/ml, not significant
T3 construct: A549 cells were seeded in 6-well plates; endogenous in cells; host or cells: A549 (ATCC)
T3 sequence (P07711 114-333): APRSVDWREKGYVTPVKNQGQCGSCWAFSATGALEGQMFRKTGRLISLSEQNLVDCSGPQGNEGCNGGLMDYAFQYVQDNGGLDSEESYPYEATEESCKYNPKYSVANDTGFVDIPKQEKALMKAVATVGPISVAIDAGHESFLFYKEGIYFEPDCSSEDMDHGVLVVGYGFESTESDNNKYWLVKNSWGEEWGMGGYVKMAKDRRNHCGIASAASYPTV
Procedure: Cathepsin L activity assays: Cellular cathepsin L activity assays were performed utilizing a Cathepsin L Activity Assay Kit (Abcam, Cambridge, Mass.) according to the manufacturer's protocol. […] The samples were then centrifuged for 2 min. at 4° C. to remove any insoluble material. Supernatants were collected and transferred to clean tubes that were kept on ice. […] The plates were incubated at 37° C. for 1 h and fluorescence signal was measure at Ex/Em=400/505 nm wavelength with a spectrofluorometer (Tecan Group Ltd, Switzerland). […] Results are expressed as a percentage of polyphenol-free control (mean+/−SD, n=6).
Cathepsin L activity assay and its cellular expression: Cathepsin L activity: Experiment was performed in cell lysates using a Cathepsin L Activity Assay Kit (Abcam, Cambridge, Mass.) according to the manufacturer's protocol. […] After 3 minutes of centrifuged for at 4° C., supernatants were collected and enzymatic reaction was set up by mixing 50 μl of treated sample, 50 μl of control sample, 50 μl of background control sample, 50 μl of positive and negative controls. […] Samples were incubated at 37° C. for 1 hour, and fluorescence was recorded at extension/emission=400/505 nm with a fluorescence spectrometer (Tecan Group Ltd., Switzerland).

[5] = target: T4, human recombinant cathepsin L (Homo sapiens, UniProt P07711); test: Cathepsin L activity, purified/recombinant enzyme (cell-free); format: biochemical
T4 construct: purchased BPS Bioscience
T4 sequence (P07711 114-333): as above
Procedure: Positive control contained only cathepsin L, and negative control containing cathepsin L and cathepsin L inhibitor E64d (25 μM). The fluorescence was recorded at extension/emission=360/480 nm with a fluorescence spectrometer (Tecan Group Ltd., Switzerland).

[6] = system: cathepsin L expression in A549 cells; test: Cathepsin L expression in A549 cells (Western blot); format: cell-based, human
Procedure: Proteins (50 μg/well) were separated on 8-16% gradient SDS-PAGE gels and transferred to a PVDF membrane. […] Images were captured with Azure™ cSeries digital imaging system (Azure Biosystems, Dublin, Calif.) with auto-exposure settings. Densitometry was performed with NIH ImageJ software.
Cathepsin L expression: Expression of cathepsin L in cells was performed using Western blot. Briefly, 48 hours prior to the analysis, A549 cells were treated with PB at 5.0, and 10 μg/ml concentrations. Next, cells were washed with 1×PBS, lysed, and processed according to procedure described below.
Western blot: […] cells were lysed with lysis buffer [RIPA buffer plus 1× Protease Inhibitor (ThermoFisher Scientific, Waltham, Mass.)]. The protein estimation was performed with Dc Protein Assay (Bio-Rad, Hercules, Calif.). A 45 μg/well of protein was separated on 8-16% gradient SDS-PAGE gels and transferred to a PVDF membrane. Detection was performed with antibodies against cathepsin L at 1:200 dilution (Santa Cruz Biotechnology, Santa Cruz, Calif.) and against β-actin at 1:1000 dilution (Cell Signaling, Danvers, Mass.).

hACE2 [7] = target: T2, hACE2; test: Recombinant hACE2 activity assay (cell-free); format: biochemical; parameters: purchased BPS Bioscience
Procedure: To determine the inhibitory effect of selected polyphenols on the activity of recombinant hACE2 protein, an ACE2 Activity Screening Assay Kit (BPS Bioscience, San Diego, Calif.) was used according to the manufacturer's protocol. […] The positive control was a sample containing only ACE2 enzyme, and the negative control was a sample containing ACE2 enzyme and 10% DMSO. ACE2 fluorogenic substrate (10 μM) was added to each well, and the plate was incubated for 1 h at RT. The fluorescence was measured at Ex/Em=535/595 nm wavelength using a spectrofluorometer (Tecan Group Ltd, Switzerland). […] Results are expressed as a percentage of polyphenol-free control (mean+/−SD, n=6).
The positive control contained only ACE2 enzyme, and the negative control additionally contained 10% DMSO.

[8] = target: T5, cellular hACE2 in hACE2/A549 cells (Homo sapiens, UniProt Q9BYF1); test: Cellular hACE2 activity assay; settings: cell-based
T5 construct: host or cells: A549 (human alveolar epithelial) stably overexpressing hACE2
T5 sequence (Q9BYF1 18-805): as the sequence (Q9BYF1 18-805) above
Procedure: ACE2 activity assays: To determine the inhibitory effect of selected polyphenols on the activity of cellular hACE2 protein, hACE2/A549 cells were seeded in 48-well plates and allowed to adhere for 24 h or until reaching 99-100% of confluence. […] (Dnp)-OH. Finally, the plates were incubated at 37° C. for 1 h, and the fluorescence signal was measured at Ex/Em=320/405 nm wavelength with a spectrofluorometer (Tecan Group Ltd, Switzerland). […] Results are expressed as a percentage of polyphenol-free control (mean+/−SD, n=6).

[9] = system: lysosomal/endosomal pH in A549 cells; test: Endosomal/lysosomal pH assay; format: cell-based, human; settings: 5.0-25 μg/ml; control approximately pH=5.0
Procedure: Endosomal/lysosomal pH assay: Endosomal pH was assessed according to a previously reported protocol [54]. […] Acridine orange (Thermo Fisher Scientific, Waltham, Mass.) was added directly to each dish to reach a final concentration of 6.6 μg/ml. The cells were additionally incubated at 37° C. with 5% CO2 for 20 min. and washed three times with 1×PBS. Live Cell Imaging Solution (LCIS) (Thermo Fisher Scientific, Waltham, Mass.) was added to the wells, and images were taken using a Zeiss Axio Observer A1 fluorescence microscope with a 40× magnification. […] Results are expressed as a percentage of polyphenol-free control (mean+/−SD, n=3).
A concurrent experiment was performed using pHrodo™ Green AM Intracellular pH Indicator (Thermo Fisher Scientific, Waltham, Mass.) according to the manufacturer's protocol. […] The plate was incubated for 30 min. at 37° C., washed again with LCIS, and fluorescence was measured at Ex/Em=509/533 nm wavelength using a spectrofluorometer (Tecan Group Ltd, Switzerland). pH identification was performed based on standard curve, using an Intracellular pH Calibration Buffer Kit according to the manufacturer's protocol (Thermo Fisher Scientific, Waltham, Mass.). […] Next, the fluorescence was measured Ex/Em=509/533 nm wavelength. […]

Row | Compound | decrease of cell-cell fusion [1] [%] | Binding with RBD (% of control ± SD) [2] | inhibition of recombinant hTMPRSS2 activity (recombinant hTMPRSS2) | direct binding to ACE2 receptor (hACE2 [3]) | decrease of cathepsin L activity in cell lysates [4] [%] | effect on recombinant cathepsin L [5] | cathepsin L expression at protein level ([6]; A549 cells) | effect on ACE2 activity (hACE2 [7]) | effect on ACE2 activity [8] | lysosomal/endosomal pH reached [9] | decrease of cathepsin L expression ([6]; starting from 10 μg/ml)
1 | Oc1ccc2c(c1)OC[C@]1(O)Cc3cc(O)c(O)cc3[C@H]21 [Brazilin] | 40 | 100 ± 0.1 % of control | 20-30% | does not bind to ACE2 directly | 15 | minor, not significant effect | neither brazilin nor curcumin down-regulated cathepsin L expression | no effects | no effects | – | –
2 | Theaflavin-3,3′-digallate | – | – | – | – | – | – | – | – | – | 5.5-6.0 | about 20%

From US20220047545A1 (priority 2020, published 2022)
